{"source": "patent US20050064383A1", "about": "“Methods and apparatus for producing gender enriched sperm” (priority 2000, published 2005)", "key": {"bull sperm [1]": {"tested_on": "bull sperm", "test": "Overnight low temperature staining of bull sperm with Hoechst 33342, separation into X- and Y-sperm by flow cytometry", "type": "cell-based", "conditions": "citrate buffer pH 6.9", "procedure": "(§1) Bull sperm in citrate buffer at pH 6.9-7.0 is sent from collection facility to sorter facility by same-day delivery at 18° C. Upon receipt the sperm is divided into three portions and stored and stained overnight with Hoechst 33342 dye at 18° C., 20° C., or 22° C. (all in citrate buffer at pH 6.9)."}, "bull sperm [2]": {"tested_on": "bull sperm", "test": "Staining of bull sperm with Hoechst 33342 in TEST buffer, split index on Coulter Epics flow cytometer", "type": "cell-based", "procedure": "Bull semen was collected from a sexually mature bull using an artificial vagina and the sample was diluted with citrate buffer (pH 7.0) at 1 part semen: 3 parts buffer. The sample was transferred to the flow cytometry laboratory at 18° C. The concentration of the sample is determined using a hemocytometer and the cells were diluted with an appropriate amount of TEST buffer (pH 7.35) to obtain 100 million sperm per mL. Ten microliters of a stock concentration (5 mg/ml in dH2O) of Hoechst 33342 was added to the sample of sperm and the cells were incubated at 25° C. for up to 4 hours. A second population of cells was handled in like manner but was incubated at 35° C. for 1 hour to serve as a positive control. A third population of cells was handled in like manner but the buffer pH is 7.2 instead of pH 7.35 to determine if buffer pH influences uptake of Hoechst 33342. At one-hour intervals for up to 4 hours, 200 μL micro aliquots were removed from the samples and evaluated using a Coulter Epics flow cytometer. The split index information was collected for each sample per treatment group. [table]"}, "bull sperm [3]": {"tested_on": "bull sperm", "test": "Staining of bull sperm with Hoechst dye at 24° C. in citrate or HEPES buffer, separation by flow cytometry", "type": "cell-based", "procedure": "Bull sperm are collected at a collection facility, extended in citrate buffer pH 6.9 and sent at 18° C. by overnight express mail to a sorting facility. The sample is divided into two portions, centrifuged to separate sperm from supernatant, and each portion resuspended respectively in citrate buffer and HEPES buffer, both at pH 7.4. 0.1% BSA is present in the HEPES buffer."}, "[4]": {"test": "Buffer solubility by HPLC", "conditions": "maximum measurable 90 micromolar", "procedure": "One microliter (μL) of the stock solution was then added to 110 μL of aqueous buffer solution placed in an HPLC (high performance liquid chromatography) vial and mixed by inverting a number of times. The samples were allowed to stand for 30 minutes and then centrifuged for 30 minutes. The centrifugation is required to deposit suspended material that could interfere with the analysis to the side of the vial. The solutions were then analyzed by HPLC by sampling the solution without touching the vial bottom or sides. Shown below are the measured quantities remaining in solution in the various buffers."}, "bull sperm [5]": {"tested_on": "bull sperm", "test": "Sperm motility/viability after overnight incubation with HO dye", "type": "cell-based", "conditions": "overnight incubation at 18, 20 or 22° C., 0 hours", "procedure": "as §1"}}, "data": [{"smiles": "CCOc1ccc(-c2nc3ccc(-c4nc5ccc(N6CCN(C)CC6)cc5[nH]4)cc3[nH]2)cc1", "note": "[Hoechst 33342]", "values": [{"measurement": "separation of Y- and X-bearing sperm by flow cytometry", "setting": "bull sperm [1]; stained 18° C. o/n, 0 hr incubation @ RT", "value": "no separation"}, {"measurement": "separation of Y- and X-bearing sperm by flow cytometry", "setting": "bull sperm [1]; stained 18° C. o/n, 1.5 hr incubation @ RT", "value": "no separation"}, {"measurement": "separation of Y- and X-bearing sperm by flow cytometry", "setting": "bull sperm [1]; stained 18° C. o/n, 5.0 hr incubation @ RT", "value": "no separation"}, {"measurement": "separation of Y- and X-bearing sperm by flow cytometry", "setting": "bull sperm [1]; stained 20° C. o/n, 0 hr incubation @ RT", "value": "no separation"}, {"measurement": "separation of Y- and X-bearing sperm by flow cytometry", "setting": "bull sperm [1]; stained 20° C. o/n, 1.5 hr incubation @ RT", "value": "no separation"}, {"measurement": "separation of Y- and X-bearing sperm by flow cytometry", "setting": "bull sperm [1]; stained 20° C. o/n, 5.0 hr incubation @ RT", "value": "no separation"}, {"measurement": "separation of Y- and X-bearing sperm by flow cytometry", "setting": "bull sperm [1]; stained 22° C. o/n, 0 hr incubation @ RT", "value": "no separation"}, {"measurement": "1 h Split index", "setting": "bull sperm [2]; 25° C. in TEST pH 7.2", "value": 0, "unit": "%"}, {"measurement": "2 h split index", "setting": "bull sperm [2]; 25° C. in TEST pH 7.2", "value": 0, "unit": "%"}, {"measurement": "3 h split index", "setting": "bull sperm [2]; 25° C. in TEST pH 7.2", "value": 0, "unit": "%"}, {"measurement": "4 h split index", "setting": "bull sperm [2]; 25° C. in TEST pH 7.2", "value": 0, "unit": "%"}, {"measurement": "1 h Split index", "setting": "bull sperm [2]; 25° C. in TEST pH 7.35", "value": 0, "unit": "%"}, {"measurement": "2 h split index", "setting": "bull sperm [2]; 25° C. in TEST pH 7.35", "value": 0, "unit": "%"}, {"measurement": "3 h split index", "setting": "bull sperm [2]; 25° C. in TEST pH 7.35", "value": 10, "unit": "%"}, {"measurement": "4 h split index", "setting": "bull sperm [2]; 25° C. in TEST pH 7.35", "value": 30, "unit": "%"}, {"measurement": "1 h Split index", "setting": "bull sperm [2]; 35° C. control (positive control), 1 hour", "value": 30, "unit": "%"}, {"measurement": "Sort results after 2.5 h incubation at room temperature (24° C.)", "setting": "bull sperm [3]; Sperm in HEPES buffer, pH 7.4, 0.1% BSA", "value": "Sperm were separated into X and Y"}, {"measurement": "Sort results after 2.5 h incubation at room temperature (24° C.)", "setting": "bull sperm [3]; Sperm in NaCitrate buffer, pH 7.4", "value": "No separation into X and Y"}, {"measurement": "quantity remaining in solution (solubility)", "setting": "[4]; HEPES Buffer pH 6.85", "value": 79, "unit": "µM"}, {"measurement": "quantity remaining in solution (solubility)", "setting": "[4]; HEPES Buffer pH 7.02", "value": 73, "unit": "µM"}, {"measurement": "quantity remaining in solution (solubility)", "setting": "[4]; HEPES Buffer pH 7.23", "value": 27, "unit": "µM"}, {"measurement": "quantity remaining in solution (solubility)", "setting": "[4]; HEPES Buffer pH 7.36", "value": 23, "unit": "µM"}, {"measurement": "quantity remaining in solution (solubility)", "setting": "[4]; HEPES Buffer pH 7.52", "value": 36, "unit": "µM"}, {"measurement": "quantity remaining in solution (solubility)", "setting": "[4]; TES Buffer pH 6.85", "value": 79, "unit": "µM"}, {"measurement": "quantity remaining in solution (solubility)", "setting": "[4]; TES Buffer pH 6.98", "value": 80, "unit": "µM"}, {"measurement": "quantity remaining in solution (solubility)", "setting": "[4]; TES Buffer pH 7.19", "value": 78, "unit": "µM"}, {"measurement": "quantity remaining in solution (solubility)", "setting": "[4]; TES Buffer pH 7.34", "value": 75, "unit": "µM"}, {"measurement": "quantity remaining in solution (solubility)", "setting": "[4]; TES Buffer pH 7.54", "value": 57, "unit": "µM"}, {"measurement": "quantity remaining in solution (solubility)", "setting": "[4]; Tris Buffer pH 6.76", "value": 34, "unit": "µM"}, {"measurement": "quantity remaining in solution (solubility)", "setting": "[4]; Tris Buffer pH 6.95", "value": 42, "unit": "µM"}, {"measurement": "quantity remaining in solution (solubility)", "setting": "[4]; Tris Buffer pH 7.15", "value": 49, "unit": "µM"}, {"measurement": "quantity remaining in solution (solubility)", "setting": "[4]; Tris Buffer pH 7.36", "value": 22, "unit": "µM"}, {"measurement": "quantity remaining in solution (solubility)", "setting": "[4]; Tris Buffer pH 7.53", "value": 15, "unit": "µM"}, {"measurement": "effect of prolonged exposure to dye medium on sperm viability (motility)", "setting": "bull sperm [5]", "value": "does not compromise sperm viability"}]}]}
